# Source: US7064120B2, “Tricyclic pyridyl carboxamides and derivatives thereof tocolytic oxytocin receptor antagonists” (Wyeth, priority 2001, dated 2006)
# Target: T1, human oxytocin receptor (Homo sapiens, UniProt P30559)
# T1 construct: host or cells: CHO cells, stably transfected (pcDNA3.1 vector)
# T1 sequence (P30559 1-389): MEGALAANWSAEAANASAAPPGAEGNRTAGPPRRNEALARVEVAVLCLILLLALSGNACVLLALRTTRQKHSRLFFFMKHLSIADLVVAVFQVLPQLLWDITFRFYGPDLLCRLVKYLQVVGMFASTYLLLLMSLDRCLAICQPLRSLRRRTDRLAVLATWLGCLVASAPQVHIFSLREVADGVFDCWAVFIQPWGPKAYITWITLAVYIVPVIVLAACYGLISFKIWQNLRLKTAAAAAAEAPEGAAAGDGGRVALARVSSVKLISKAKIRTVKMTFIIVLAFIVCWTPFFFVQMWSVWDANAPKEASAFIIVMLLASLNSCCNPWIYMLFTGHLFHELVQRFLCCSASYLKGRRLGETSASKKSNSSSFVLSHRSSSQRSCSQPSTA
# Test: Oxytocin binding in CHO cell membranes expressing human oxytocin receptors ([3H]oxytocin radioligand binding)
# Conditions: 100 nM; for inhibition at 0.1 µM: read-out: OT % inhibition @ 100 nM
# Method in brief: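 CHO membranes expressing human oxytocin receptor (25–50 μg protein/well) incubated 60 min at room temperature with [3H]oxytocin in Tris-HCl pH 7.4 buffer with MgCl2, BSA and protease inhibitors. Filtration and scintillation counting; reported as % inhibition at a stated concentration or nM IC50.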
Structure (SMILES),inhibition at 0.1 µM [%],OT % inhibition @ 100 nM [%]
"Cc1ccccc1-c1ccc(C(=O)N2Cc3ccc(C(=O)N4CCN(c5ccncc5)CC4)n3Cc3ccccc32)cc1 [Example 117, {10-[(2′-Methyl-[1,1′-biphenyl]-4-yl)carbonyl]-10,11-dihydro-5H-pyrrolo[2,1-c][1,4]benzodiazepin-3-yl}[4-(4-pyridinyl)-1-piperazinyl]methanone]",13,–
COc1cc(C(=O)N2Cc3ccc(C(=O)N4CCN(c5ccncc5)CC4)n3Cc3ccccc32)ccc1-c1ccccc1C [Example 118],–,83
"COc1cc(-c2ccccc2C)c(Cl)cc1C(=O)N1Cc2ccc(C(=O)N3CCN(c4ccncc4)CC3)n2Cc2ccccc21 [Example 119, {10-[(6-Chloro-3-methoxy-2′-methyl-[1,1′-biphenyl]-4-yl)carbonyl]-10,11-dihydro-5H-pyrrolo[2,1-c][1,4]benzodiazepin-3-yl}[4-(4-pyridinyl)-1-piperazinyl]methanone]",83,–
"COc1cccc(-c2cc(OC)c(C(=O)N3Cc4ccc(C(=O)N5CCN(c6ccncc6)CC5)n4Cc4ccccc43)cc2Cl)c1 [Example 120, {10-[(6-Chloro-3,3′-dimethoxy-[1,1′-biphenyl]-4-yl)carbonyl]-10,11-dihydro-5H-pyrrolo[2,1-c][1,4]benzodiazepin-3-yl}[4-(4-pyridinyl)-1-piperazinyl]methanone]",67,–
"COc1cc(C(=O)N2Cc3ccc(C(=O)N4CCN(c5ccncc5)CC4)n3Cc3ccccc32)ccc1-c1cccc2ccccc12 [Example 121, {10-[3-Methoxy-4-(naphthalen-1-yl)benzoyl]-10,11-dihydro-5H-pyrrolo[2,1-c][1,4]benzodiazepin-3-yl}[4-(4-pyridinyl)-1-piperazinyl]methanone]",57,–
"COc1ccccc1-c1ccc(C(=O)N2Cc3ccc(C(=O)N4CCN(c5ccncc5)CC4)n3Cc3ccccc32)cc1OC [Example 122, {10-[(2,2′-Dimethoxy-[1,1′-biphenyl]-4-yl)carbonyl]-10,11-dihydro-5H-pyrrolo[2,1-c][1,4]benzodiazepin-3-yl}[4-(4-pyridinyl)-1-piperazinyl]methanone]",61,–
"COc1cccc(-c2ccc(C(=O)N3Cc4ccc(C(=O)N5CCN(c6ccncc6)CC5)n4Cc4ccccc43)cc2OC)c1 [Example 123, {10-[(2,3′-Dimethoxy-[1,1′-biphenyl]-4-yl)carbonyl]-10,11-dihydro-5H-pyrrolo[2,1-c][1,4]benzodiazepin-3-yl}[4-(4-pyridinyl)-1-piperazinyl]methanone]",95,–
"O=C(c1ccc2n1Cc1ccccc1N(C(=O)c1ccc(-c3cccc4ccccc34)cc1Cl)C2)N1CCN(c2ccncc2)CC1 [Example 124, {10-[2-Chloro-4-(naphthalen-1-yl)benzoyl]-10,11-dihydro-5H-pyrrolo[2,1-c][1,4]benzodiazepin-3-yl}[4-(4-pyridinyl)-1-piperazinyl]methanone]",24,–
"COc1ccccc1-c1ccc(C(=O)N2Cc3ccc(C(=O)N(C)CCc4ccncc4)n3Cc3ccccc32)cc1OC [Example 125, 10-[(2,2′-Dimethoxy-[1,1′-biphenyl]-4-yl)carbonyl]-N-methyl-N-[2-(4-pyridinyl)ethyl]-10,11-dihydro-5H-pyrrolo[2,1-c][1,4]benzodiazepine-3-carboxamide]",94,–
"COc1ccccc1-c1ccc(C(=O)N2Cc3ccc(C(=O)N(C)CCc4ccncc4)n3Cc3ccccc32)cc1C [Example 126, 10-[(2′-Methoxy-2-methyl-[1,1′-biphenyl]-4-yl)carbonyl]-N-methyl-N-[2-(4-pyridinyl)ethyl]-10,11-dihydro-5H-pyrrolo[2,1-c][1,4]benzodiazepine-3-carboxamide]",93,–
"Cc1ccccc1-c1ccc(C(=O)N2Cc3ccc(C(=O)N(C)CCc4ccncc4)n3Cc3ccccc32)cc1C [Example 127, 10-[(2,2′-Dimethyl-[1,1′-biphenyl]-4-yl)carbonyl]-N-methyl-N-[2-(4-pyridinyl)ethyl]-10,11-dihydro-5H-pyrrolo[2,1-c][1,4]benzodiazepine-3-carboxamide]",102,–
"COc1cccc(-c2ccc(C(=O)N3Cc4ccc(C(=O)N(C)CCc5ccncc5)n4Cc4ccccc43)cc2C)c1 [Example 128, 10-[(3′-Methoxy-2-methyl-[1,1′-biphenyl]-4-yl)carbonyl]-N-methyl-N-[2-(4-pyridinyl)ethyl]-10,11-dihydro-5H-pyrrolo[2,1-c][1,4]benzodiazepine-3-carboxamide]",88,–
"COc1ccccc1-c1ccc(C(=O)N2Cc3ccc(C(=O)N(C)CCc4ccncc4)n3Cc3ccccc32)cc1 [Example 129, 10-[(2′-Methoxy-[1,1′-biphenyl]-4-yl)carbonyl]-N-methyl-N-[2-(4-pyridinyl)ethyl]-10,11-dihydro-5H-pyrrolo[2,1-c][1,4]benzodiazepine-3-carboxamide]",98,–
"Cc1ccccc1-c1ccc(C(=O)N2Cc3ccc(C(=O)N(C)CCc4ccncc4)n3Cc3ccccc32)cc1 [Example 130, N-Methyl-10-[(2′-methyl-[1,1′-biphenyl]-4-yl)carbonyl]-N-[2-(4-pyridinyl)ethyl]-10,11-dihydro-5H-pyrrolo[2,1-c][1,4]benzodiazepine-3-carboxamide]",0,–
"COc1cc(C(=O)N2Cc3ccc(C(=O)N(C)CCc4ccncc4)n3Cc3ccccc32)ccc1-c1ccccc1C [Example 131, 10-[(2-Methoxy-2′-methyl-[1,1′-biphenyl]-4-yl)carbonyl]-N-methyl-N-[2-(4-pyridinyl)ethyl]-10,11-dihydro-5H-pyrrolo[2,1-c][1,4]benzodiazepine-3-carboxamide]",99,–
"COc1cc(-c2ccccc2C)c(Cl)cc1C(=O)N1Cc2ccc(C(=O)N(C)CCc3ccncc3)n2Cc2ccccc21 [Example 132, 10-[(6-Chloro-3-methoxy-2′-methyl-[1,1′-biphenyl]-4-yl)carbonyl]-N-methyl-N-[2-(4-pyridinyl)ethyl]-10,11-dihydro-5H-pyrrolo[2,1-c][1,4]benzodiazepine-3-carboxamide]",99,–
"COc1cccc(-c2cc(OC)c(C(=O)N3Cc4ccc(C(=O)N(C)CCc5ccncc5)n4Cc4ccccc43)cc2Cl)c1 [Example 133, 10-[(6-Chloro-3,3′-dimethoxy-[1,1′-biphenyl]-4-yl)carbonyl]-N-methyl-N-[2-(4-pyridinyl)ethyl]-10,11-dihydro-5H-pyrrolo[2,1-c][1,4]benzodiazepine-3-carboxamide]",87,–
"COc1cc(C(=O)N2Cc3ccc(C(=O)N(C)CCc4ccncc4)n3Cc3ccccc32)ccc1-c1cccc2ccccc12 [Example 134, 10-[3-Methoxy-4-(naphthalen-1-yl)benzoyl]-N-methyl-N-[2-(4-pyridinyl)ethyl]-10,11-dihydro-5H-pyrrolo[2,1-c][1,4]benzodiazepine-3-carboxamide]",88,–
"COc1cccc(-c2ccc(C(=O)N3Cc4ccc(C(=O)N(C)CCc5ccncc5)n4Cc4ccccc43)cc2OC)c1 [Example 135, 10-[(2,3′-Dimethoxy-[1,1′-biphenyl]-4-yl)carbonyl]-N-methyl-N-[2-(4-pyridinyl)ethyl]-10,11-dihydro-5H-pyrrolo[2,1-c][1,4]benzodiazepine-3-carboxamide]",96,–
"CN(CCc1ccncc1)C(=O)c1ccc2n1Cc1ccccc1N(C(=O)c1ccc(-c3cccc4ccccc34)cc1Cl)C2 [Example 136, 10-[2-Chloro-4-(naphthalen-1-yl)benzoyl]-N-methyl-N-[2-(4-pyridinyl)ethyl]-10,11-dihydro-5H-pyrrolo[2,1-c][1,4]benzodiazepine-3-carboxamide]",44,–
"Cc1cc(C(=O)N2Cc3ccc(C(=O)N(C)CCc4ccncc4)n3Cc3ccccc32)ccc1-c1ccccc1C(F)(F)F [Example 137, N-Methyl-10-{[2-methyl-2′-trifluoromethyl-[1,1′-biphenyl]-4-yl]carbonyl}-N-[2-(4-pyridinyl)ethyl]-10,11-dihydro-5H-pyrrolo[2,1-c][1,4]benzodiazepine-3-carboxamide]",95,–
"COc1ccccc1-c1ccc(C(=O)N2Cc3ccc(C(=O)N4CCCCC4c4cccnc4)n3Cc3ccccc32)cc1C (stereo not drawn) [Example 138, {10-[(2′-Methoxy-2-methyl-[1,1′-biphenyl]-4-yl)carbonyl]-10,11-dihydro-5H-pyrrolo[2,1-c][1,4]benzodiazepin-3-yl}[2-(3-pyridinyl)-1-piperidinyl]methanone]",97,–
"COc1ccccc1-c1ccc(C(=O)N2Cc3ccc(C(=O)N4CCCCC4c4cccnc4)n3Cc3ccccc32)cc1 (stereo not drawn) [Example 139, {10-[(2′-Methoxy-[1,1′-biphenyl]-4-yl)carbonyl]-10,11-dihydro-5H-pyrrolo[2,1-c][1,4]benzodiazepin-3-yl}[2-(3-pyridinyl)-1-piperidinyl]methanone]",96,–
"COc1cc(-c2ccccc2C)c(Cl)cc1C(=O)N1Cc2ccc(C(=O)N3CCCCC3c3cccnc3)n2Cc2ccccc21 (stereo not drawn) [Example 140, {10-[(6-Chloro-3-methoxy-2′-methyl-[1,1′-biphenyl]-4-yl)carbonyl]-10,11-dihydro-5H-pyrrolo[2,1-c][1,4]benzodiazepin-3-yl}[2-(3-pyridinyl)-1-piperidinyl]methanone]",95,–
